From patent US11180462B2, “Microbiocidal oxadiazole derivatives” (SYNGENTA PARTICIPATIONS AG, priority 2015, dated 2021)

How the values were obtained:
[1] = tested on: Puccinia recondita f. Sp. Tritici; assay: Fungicidal activity against Puccinia recondita f. sp. tritici / wheat / leaf disc preventative (brown rust); type: in vivo; conditions: foliar, 200 ppm in the applied formulation, wheat leaf segments, preventative, compared to untreated control leaf disks, read-out: disease control
Method in brief: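 200 ppm spray on wheat cv. Kanzler leaf segments; spore inoculation +1 day; 19° C., 75% rh, 12 h/12 h light cycle; single rating of % control vs untreated at 7 to 9 days.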

Phakopsora Pachyrhizi = assay: Fungicidal activity against Phakopsora pachyrhizi / soybean / leaf disc preventative (Asian soybean rust); type: in vivo; conditions: foliar, 200 ppm in the applied formulation, soybean leaf disks, compared to untreated control leaf disks, read-out: disease control
Method in brief: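 Scored 12 to 14 days post-application as percent control relative to untreated check discs, rust spores were sprayed under the disc one day after compound treatment. Incubation: 20°C, 75% rh, first 24–36 h in darkness, then 12 h daily light; discs kept on water agar.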

[2] = tested on: Glomerella lagenarium (Colletotrichum lagenarium); assay: Fungicidal activity against Glomerella lagenarium (Colletotrichum lagenarium) liquid culture / cucumber / preventative (anthracnose); type: cell-based; conditions: Colletotrichum orbiculare; 20 ppm in the applied formulation; liquid culture (PDB), growth inhibition measured photometrically after 3 to 4 days; compared to untreated control; read-out: disease control
Method in brief: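 Percent activity against the untreated check was derived from photometric growth measurements made 2 to 7 days after conidia in potato dextrose broth were combined with compound at 20 ppm. Cultures were kept dark at 24 °C and 96% humidity.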

CCC(C)(CC)C(=O)N(Cc1ccc(-c2noc(C(F)(F)F)n2)cc1)C1CC1 [Compound 1.135, N-cyclopropyl-2-ethyl-2-methyl-N-[[4-[5-(trifluoromethyl)-1,2,4-oxadiazol-3-yl]phenyl]methyl]-butanamide]
≥ 80%: pest or weed control at 200 ppm [1] | pest or weed control at 200 ppm (Phakopsora Pachyrhizi) | inhibition of growth at 20 ppm [2]

O=C(CC(F)(F)F)OCCN(Cc1ccc(-c2noc(C(F)(F)F)n2)cc1)C(=O)CC(F)(F)F [Compound 1.734, 2-[[4-[5-(trifluoromethyl)-1,2,4-oxadiazol-3-yl]phenyl]methyl-(3,3,3-trifluoropropanoyl)-amino]ethyl 3,3,3-trifluoropropanoate]
≥ 80%: pest or weed control at 200 ppm [1] | pest or weed control at 200 ppm (Phakopsora Pachyrhizi) | inhibition of growth at 20 ppm [2]

CCCCON(Cc1ccc(-c2noc(C(F)(F)F)n2)cc1)C(=O)C(C)OC (stereo not drawn) [Compound 1.647, N-butoxy-2-methoxy-N-[[4-[5-(trifluoromethyl)-1,2,4-oxadiazol-3-yl]phenyl]methyl]-propanamide]
≥ 80%: pest or weed control at 200 ppm [1] | pest or weed control at 200 ppm (Phakopsora Pachyrhizi) | inhibition of growth at 20 ppm [2]

O=C(CC1CC1)OCCN(Cc1ccc(-c2noc(C(F)(F)F)n2)cc1)C(=O)CC1CC1 [Compound 1.737, 2-[(2-cyclopropylacetyl)-[[4-[5-(trifluoromethyl)-1,2,4-oxadiazol-3-yl]phenyl]methyl]-amino]ethyl 2-cyclopropylacetate]
≥ 80%: pest or weed control at 200 ppm [1] | pest or weed control at 200 ppm (Phakopsora Pachyrhizi) | inhibition of growth at 20 ppm [2]

C#CCOC(=O)NC(C(=O)N(Cc1ccc(-c2noc(C(F)(F)F)n2)cc1)C1CC1)C(C)C (stereo not drawn) [Compound 1.144, prop-2-ynyl N-[1-[cyclopropyl-[[4-[5-(trifluoromethyl)-1,2,4-oxadiazol-3-yl]phenyl]methyl]-carbamoyl]-2-methyl-propyl]carbamate]
≥ 80%: pest or weed control at 200 ppm [1] | pest or weed control at 200 ppm (Phakopsora Pachyrhizi) | inhibition of growth at 20 ppm [2]

C=CCN(Cc1ccc(-c2noc(C(F)(F)F)n2)cc1)C(=O)C1CCCC1 [Compound 1.475, N-allyl-N-[[4-[5-(trifluoromethyl)-1,2,4-oxadiazol-3-yl]phenyl]methyl]-cyclopentane-carboxamide]
≥ 80%: pest or weed control at 200 ppm [1] | pest or weed control at 200 ppm (Phakopsora Pachyrhizi) | inhibition of growth at 20 ppm [2]

CC=CCC(=O)N(Cc1ccc(-c2noc(C(F)(F)F)n2)cc1)CC1CC1 [Compound 1.222, N-(cyclopropylmethyl)-N-[[4-[5-(trifluoromethyl)-1,2,4-oxadiazol-3-yl]phenyl]methyl]-pent-3-enamide]
≥ 80%: pest or weed control at 200 ppm [1] | pest or weed control at 200 ppm (Phakopsora Pachyrhizi) | inhibition of growth at 20 ppm [2]

COCCN(Cc1ccc(-c2noc(C(F)(F)F)n2)cc1)C(=O)CC(C)(C)C [Compound 1.342, N-(2-methoxyethyl)-3,3-dimethyl-N-[[4-[5-(trifluoromethyl)-1,2,4-oxadiazol-3-yl]phenyl]methyl]-butanamide]
≥ 80%: pest or weed control at 200 ppm [1] | pest or weed control at 200 ppm (Phakopsora Pachyrhizi) | inhibition of growth at 20 ppm [2]

O=C(CC1CC1)N(Cc1ccc(-c2noc(C(F)(F)F)n2)cc1)CC1CCCO1 (stereo not drawn) [Compound 1.418, 2-cyclopropyl-N-(tetrahydrofuran-2-ylmethyl)-N-[[4-[5-(trifluoromethyl)-1,2,4-oxadiazol-3-yl]phenyl]methyl]-acetamide]
≥ 80%: pest or weed control at 200 ppm [1] | pest or weed control at 200 ppm (Phakopsora Pachyrhizi) | inhibition of growth at 20 ppm [2]

CCCCCC(=O)N(Cc1ccc(-c2noc(C(F)(F)F)n2)cc1)C1CC1 [Compound 1.93, N-cyclopropyl-N-[[4-[5-(trifluoromethyl)-1,2,4-oxadiazol-3-yl]phenyl]methyl]-hexanamide]
≥ 80%: pest or weed control at 200 ppm [1] | pest or weed control at 200 ppm (Phakopsora Pachyrhizi) | inhibition of growth at 20 ppm [2]

N#CC1(C(=O)N(CCO)Cc2ccc(-c3noc(C(F)(F)F)n3)cc2)CC1 [Compound 1.729, 1-cyano-N-(2-hydroxyethyl)-N-[[4-[5-(trifluoromethyl)-1,2,4-oxadiazol-3-yl]phenyl]methyl]-cyclopropane-carboxamide]
≥ 80%: pest or weed control at 200 ppm [1] | pest or weed control at 200 ppm (Phakopsora Pachyrhizi) | inhibition of growth at 20 ppm [2]

CCON(Cc1ccc(-c2noc(C(F)(F)F)n2)cc1)C(=O)C1(C#N)CC1 [Compound 1.628, 1-cyano-N-ethoxy-N-[[4-[5-(trifluoromethyl)-1,2,4-oxadiazol-3-yl]phenyl]methyl]-cyclopropane-carboxamide]
≥ 80%: pest or weed control at 200 ppm [1] | pest or weed control at 200 ppm (Phakopsora Pachyrhizi) | inhibition of growth at 20 ppm [2]

O=C(CC1CC1)N(CCO)Cc1ccc(-c2noc(C(F)(F)F)n2)cc1 [Compound 1.736, 2-cyclopropyl-N-(2-hydroxyethyl)-N-[[4-[5-(trifIuoromethyl)-1,2,4-oxadiazol-3-yl]phenyl]methyl]-acetamide]
≥ 80%: pest or weed control at 200 ppm [1] | pest or weed control at 200 ppm (Phakopsora Pachyrhizi) | inhibition of growth at 20 ppm [2]

C#CCOc1ccc(C(=O)N(Cc2ccc(-c3noc(C(F)(F)F)n3)cc2)OC)cc1F [Compound 1.51, 3-fluoro-N-methoxy-4-prop-2-ynoxy-N-[[4-[5-(trifluoromethy)-1,2,4-oxadiazol-3-yl]phenyl]methyl]-benzamide]
≥ 80%: pest or weed control at 200 ppm [1] | pest or weed control at 200 ppm (Phakopsora Pachyrhizi) | inhibition of growth at 20 ppm [2]

CON(Cc1ccc(-c2noc(C(F)(F)F)n2)cc1)C(=O)N(C)C#N [Compound 3.62, 1-cyano-3-methoxy-1-methyl-3-[[4-[5-(trifluoromethyl)-1,2,4-oxadiazol-3-yl]phenyl]methyl]urea]
≥ 80%: pest or weed control at 200 ppm [1] | pest or weed control at 200 ppm (Phakopsora Pachyrhizi) | inhibition of growth at 20 ppm [2]

C#CCN(Cc1ccc(-c2noc(C(F)(F)F)n2)cc1)C(=O)C1CC1(Cl)Cl (stereo not drawn) [Compound 1.190, 2,2-dichloro-N-prop-2-ynyl-N-[[4-[5-(trifluoromethyl)-1,2,4-oxadiazol-3-yl]phenyl]methyl]-cyclopropane-carboxamide]
≥ 80%: pest or weed control at 200 ppm [1] | pest or weed control at 200 ppm (Phakopsora Pachyrhizi) | inhibition of growth at 20 ppm [2]

COCCCC(=O)N(Cc1ccc(-c2noc(C(F)(F)F)n2)cc1)CC1CC1 [Compound 1.238, N-(cyclopropylmethyl)-4-methoxy-N-[[4-[5-(trifluoromethyl)-1,2,4-oxadiazol-3-yl]phenyl]methyl]-butanamide]
≥ 80%: pest or weed control at 200 ppm [1] | pest or weed control at 200 ppm (Phakopsora Pachyrhizi) | inhibition of growth at 20 ppm [2]

O=C(C1CC1F)N(Cc1ccc(-c2noc(C(F)(F)F)n2)cc1)Cc1ccco1 (stereo not drawn) [Compound 1.471, 2-fluoro-N-(2-furylmethyl)-N-[[4-(5-(trifluoromethyl)-1,2,4-oxadiazol-3-yl]phenyl]methyl]-cyclopropane-carboxamide]
≥ 80%: pest or weed control at 200 ppm [1] | pest or weed control at 200 ppm (Phakopsora Pachyrhizi) | inhibition of growth at 20 ppm [2]

CC(C)CC(=O)N(Cc1ccc(-c2noc(C(F)(F)F)n2)cc1)CC1CC1 [Compound 1.218, N-(cyclopropylmethyl)-3-methyl-N-[[4-[5-(trifluoromethyl)-1,2,4-oxadiazol-3-yl]phenyl]methyl]-butanamide]
≥ 80%: pest or weed control at 200 ppm [1] | pest or weed control at 200 ppm (Phakopsora Pachyrhizi) | inhibition of growth at 20 ppm [2]

CCON(Cc1ccc(-c2noc(C(F)(F)F)n2)cc1)C(=O)C1CCC1 [Compound 1.619, N-ethoxy-N-[[4-[5-(trifluoromethyl)-1,2,4-oxadiazol-3-yl]phenyl]methyl]-cyclobutane-carboxamide]
≥ 80%: pest or weed control at 200 ppm [1] | pest or weed control at 200 ppm (Phakopsora Pachyrhizi) | inhibition of growth at 20 ppm [2]

O=C(c1ccccc1Cl)N(O)Cc1ccc(-c2noc(C(F)(F)F)n2)cc1 [Compound 1.754, 2-chloro-N-hydroxy-N-[[4-[5-(trifluoromethyl)-1,2,4-oxadiazol-3-yl]phenyl]methyl]-benzamide]
≥ 80%: pest or weed control at 200 ppm [1] | pest or weed control at 200 ppm (Phakopsora Pachyrhizi) | inhibition of growth at 20 ppm [2]

CCCC(=O)N(Cc1ccc(-c2noc(C(F)(F)F)n2)cc1)CC1CCCO1 (stereo not drawn) [Compound 1.416, N-(tetrahydrofuran-2-ylmethyl)-N-[[4-[5-(trifluoromethyl)-1,2,4-oxadiazol-3-yl]phenyl]methyl]-butanamide]
≥ 80%: pest or weed control at 200 ppm [1] | pest or weed control at 200 ppm (Phakopsora Pachyrhizi) | inhibition of growth at 20 ppm [2]

CON(C(=O)C1(C#N)CC1)C(C)c1ccc(-c2noc(C(F)(F)F)n2)cc1 (stereo not drawn) [Compound 1.274, 1-cyano-N-methoxy-N-[1-[4-[5-(trifluoromethyl)-1,2,4-oxadiazol-3-yl]phenyl]ethyl]-cyclopropane-carboxamide]
≥ 80%: pest or weed control at 200 ppm [1] | pest or weed control at 200 ppm (Phakopsora Pachyrhizi) | inhibition of growth at 20 ppm [2]

CC(C)(C)OC(=O)ON(Cc1ccc(-c2noc(C(F)(F)F)n2)cc1)C(=O)OC(C)(C)C [Compound 2.21, [tert-butoxycarbonyl-[[4-[5-(trifluoromethyl)-1,2,4-oxadiazol-3-yl]phenyl]methyl]-amino]tert-butyl carbonate]
≥ 80%: pest or weed control at 200 ppm [1] | pest or weed control at 200 ppm (Phakopsora Pachyrhizi) | inhibition of growth at 20 ppm [2]

COCC(=O)OCCN(Cc1ccc(-c2noc(C(F)(F)F)n2)cc1)C(=O)COC [Compound 1.716, 2-[(2-methoxy-acetyl)-[[4-[5-(trifluoromethyl)-1,2,4-oxadiazol-3-yl]phenyl]methyl]-amino]ethyl 2-methoxyacetate]
≥ 80%: pest or weed control at 200 ppm [1] | pest or weed control at 200 ppm (Phakopsora Pachyrhizi) | inhibition of growth at 20 ppm [2]
